In BindingDB's records for doi:10.1021/acschembio.6b00560 (Vanderbilt Institute of Chemical Biology, Vanderbilt …, 2016):

Tests used:
[1] = target: T1, Prostaglandin G/H synthase 2 (Mus musculus, UniProt Q05769); assay: COX Enzyme Inhibition Assay (Table 1)
T1 sequence (Q05769 whole entry): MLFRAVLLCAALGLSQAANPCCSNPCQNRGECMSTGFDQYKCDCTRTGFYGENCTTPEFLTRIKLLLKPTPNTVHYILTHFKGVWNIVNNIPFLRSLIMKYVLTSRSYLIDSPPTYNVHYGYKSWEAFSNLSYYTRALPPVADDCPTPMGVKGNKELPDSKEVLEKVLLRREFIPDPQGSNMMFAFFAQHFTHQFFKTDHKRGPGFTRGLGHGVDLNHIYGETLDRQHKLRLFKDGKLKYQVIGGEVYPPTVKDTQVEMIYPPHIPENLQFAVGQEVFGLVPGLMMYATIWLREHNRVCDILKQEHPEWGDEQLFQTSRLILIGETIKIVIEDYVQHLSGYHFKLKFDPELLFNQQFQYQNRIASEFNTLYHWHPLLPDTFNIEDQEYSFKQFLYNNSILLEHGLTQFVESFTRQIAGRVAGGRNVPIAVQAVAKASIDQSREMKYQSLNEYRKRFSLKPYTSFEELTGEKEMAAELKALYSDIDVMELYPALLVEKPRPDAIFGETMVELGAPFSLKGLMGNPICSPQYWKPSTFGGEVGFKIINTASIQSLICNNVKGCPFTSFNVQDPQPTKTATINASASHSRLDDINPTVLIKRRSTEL

[2] = target: T2, Prostaglandin G/H synthase 1 (Ovis aries, UniProt P05979); assay: COX Enzyme Inhibition Assay (Table 1)
T2 sequence (P05979 whole entry): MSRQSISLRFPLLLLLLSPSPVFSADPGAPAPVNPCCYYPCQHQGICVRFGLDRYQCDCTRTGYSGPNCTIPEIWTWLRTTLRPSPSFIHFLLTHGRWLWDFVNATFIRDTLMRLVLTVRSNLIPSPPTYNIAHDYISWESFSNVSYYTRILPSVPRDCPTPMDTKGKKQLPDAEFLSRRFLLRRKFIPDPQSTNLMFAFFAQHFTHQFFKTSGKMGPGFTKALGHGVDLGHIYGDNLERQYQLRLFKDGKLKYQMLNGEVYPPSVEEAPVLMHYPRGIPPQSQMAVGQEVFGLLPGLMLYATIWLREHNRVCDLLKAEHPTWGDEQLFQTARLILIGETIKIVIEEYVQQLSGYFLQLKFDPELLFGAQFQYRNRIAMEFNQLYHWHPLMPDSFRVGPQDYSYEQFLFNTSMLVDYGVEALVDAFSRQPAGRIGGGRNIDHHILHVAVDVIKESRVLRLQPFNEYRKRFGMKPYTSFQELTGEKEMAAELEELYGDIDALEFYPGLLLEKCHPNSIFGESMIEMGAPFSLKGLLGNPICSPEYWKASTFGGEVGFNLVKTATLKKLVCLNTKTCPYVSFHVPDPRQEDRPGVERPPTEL

Structure (SMILES) | IC50 [1] | IC50 [2]
COc1ccc2c(c1)c(CC(=O)O[C@@H](C(=O)O[C@H]1C[C@@]3(O)[C@@H](OC(=O)c4ccccc4)[C@@H]4[C@]5(OC(C)=O)CO[C@@H]5C[C@H](O)[C@@]4(C)C(=O)[C@H](OC(C)=O)C(=C1C)C3(C)C)[C@@H](NC(=O)c1ccccc1)c1ccccc1)c(C)n2C(=O)c1ccc(Cl)cc1 [Cytotoxic conjugates, 1] | > 25 µM | > 25 µM
COc1ccc2c(c1)c(CC(=O)NCCCCOC(=O)CCC(=O)O[C@@H](C(=O)O[C@H]1C[C@@]3(O)[C@@H](OC(=O)c4ccccc4)[C@@H]4[C@]5(OC(C)=O)CO[C@@H]5C[C@H](O)[C@@]4(C)C(=O)[C@H](OC(C)=O)C(=C1C)C3(C)C)[C@@H](NC(=O)c1ccccc1)c1ccccc1)c(C)n2C(=O)c1ccc(Cl)cc1 [Cytotoxic conjugates, 3] | – | > 25 µM
COc1ccc2c(c1)c(CC(=O)Nc1ccc(CNC(=O)CCC(=O)O[C@@H](C(=O)O[C@H]3C[C@@]4(O)[C@@H](OC(=O)c5ccccc5)[C@@H]5[C@]6(OC(C)=O)CO[C@@H]6C[C@H](O)[C@@]5(C)C(=O)[C@H](OC(C)=O)C(=C3C)C4(C)C)[C@@H](NC(=O)c3ccccc3)c3ccccc3)cc1)c(C)n2C(=O)c1ccc(Cl)cc1 [Cytotoxic conjugates, 4] | – | > 25 µM
COc1ccc2c(c1)c(CC(=O)NCCOC(=O)\C=C(C)/C=C/C=C(C)/C=C/C1=C(C)CCCC1(C)C)c(C)n2C(=O)c1ccc(Cl)cc1 [Cytotoxic conjugates, 5] | – | > 25 µM
COc1ccc2c(c1)c(CC(=O)NCCNC(=O)/C=C(C)/C=C/C=C(C)/C=C/C1=C(C)CCCC1(C)C)c(C)n2C(=O)c1ccc(Cl)cc1 [Cytotoxic conjugates, 6] | 0.1 µM | > 25 µM
COc1ccc2c(c1)c(CC(=O)NCCNC(=O)/C=C(C)/C=C/C=C(C)\C=C\C1=C(C)CCCC1(C)C)c(C)n2C(=O)c1ccc(Cl)cc1 [Cytotoxic conjugates, 7] | 0.6 µM | > 25 µM
COc1ccc2c(c1)c(CC(=O)NCCNC(=O)CCC(=O)Nc1ccc(S(=O)(=O)Nc3nccs3)cc1)c(C)n2C(=O)c1ccc(Cl)cc1 [Cytotoxic conjugates, 8] | – | > 25 µM
COc1ccc2c(c1)c(CCNC(=O)CCC(=O)Nc1ccc(S(=O)(=O)Nc3nccs3)cc1)c(C)n2Cc1ccc(Br)cc1 [Cytotoxic conjugates, 9] | > 25 µM | > 25 µM
CCC1(O)C(=O)OCc2c1cc1n(c2=O)Cc2cc3cc(OC(=O)CCC(=O)OCCNC(=O)Cc4c(C)n(C(=O)c5ccc(Cl)cc5)c5ccc(OC)cc45)ccc3nc2-1 (stereo unspecified) [Cytotoxic conjugates, 10] | > 25 µM | > 25 µM
COc1ccc2c(c1)c(CC(=O)NCCNC(=O)CCC(=O)O[C@@H]1c3cc4c(cc3[C@H](c3cc(OC)c(OC)c(OC)c3)[C@@H]3C(=O)OCC13)OCO4)c(C)n2C(=O)c1ccc(Cl)cc1 (stereo partly specified) [Cytotoxic conjugates, 11] | 0.47 µM | > 25 µM
COc1ccc2c(c1)c(CC(=O)NCCCCOC(=O)CCC(=O)O[C@@H]1c3cc4c(cc3[C@H](c3cc(OC)c(OC)c(OC)c3)[C@@H]3C(=O)OCC13)OCO4)c(C)n2C(=O)c1ccc(Cl)cc1 (stereo partly specified) [Cytotoxic conjugates, 14] | – | > 25 µM
COc1ccc2c(c1)c(CC(=O)NCc1ccc(CNC(=O)CCC(=O)O[C@@H]3c4cc5c(cc4[C@H](c4cc(OC)c(OC)c(OC)c4)[C@@H]4C(=O)OCC34)OCO5)cc1)c(C)n2C(=O)c1ccc(Cl)cc1 (stereo partly specified) [Cytotoxic conjugates, 15] | – | > 25 µM
COc1ccc2c(c1)c(CC(=O)NCCCCNC(=O)CCC(=O)OC1CCCCC1)c(C)n2C(=O)c1ccc(Cl)cc1 [Cytotoxic conjugates, 16] | – | > 25 µM
COc1cc([C@@H]2c3cc4c(cc3[C@H](O)[C@H]3COC(=O)[C@H]23)OCO4)cc(OC)c1OC [podophyllotoxin] | > 25 µM | > 25 µM
